The target in this test is T1, Cdc7 (BEV coexpressed huCDC7/DBF4) (Homo sapiens, UniProt O00311).
T1 construct: made in house; host or cells: BEV (baculovirus expression vector) co-expression; insect cells are implied but no cell line is named
Put plainly: Cdc7 enzyme inhibition assay ([33P]ATP, biotinylated peptide substrate, FlashPlate). It is filed as biochemical. The note with it: for Ki: Table 3, enzyme inhibition data (Ki); for Ki ratio comparisons (Ki Comparative Example/Ki Example): Table 2, Comparative Example lacking the chloro substituent versus the chloro Example. The procedure: Cdc7 (BEV coexpressed huCDC7/DBF4) is prepared internally. Cdc7 assays are conducted as follows with final concentrations as listed. […] Reactions are quenched after 1 hr by the addition of 90 μL stop buffer (50 mM EDTA, 2M NaCl). […] (Ki) for exemplary compounds.

Where only a bound is given, the exact number is not on record here.

This note sets out measurements from US8435980B2 (AbbVie Inc., priority 2009, dated 2013).

As a reminder, the Ki is a measure of affinity in units of concentration, obtained from inhibition or displacement.

T1 sequence (O00311 whole entry): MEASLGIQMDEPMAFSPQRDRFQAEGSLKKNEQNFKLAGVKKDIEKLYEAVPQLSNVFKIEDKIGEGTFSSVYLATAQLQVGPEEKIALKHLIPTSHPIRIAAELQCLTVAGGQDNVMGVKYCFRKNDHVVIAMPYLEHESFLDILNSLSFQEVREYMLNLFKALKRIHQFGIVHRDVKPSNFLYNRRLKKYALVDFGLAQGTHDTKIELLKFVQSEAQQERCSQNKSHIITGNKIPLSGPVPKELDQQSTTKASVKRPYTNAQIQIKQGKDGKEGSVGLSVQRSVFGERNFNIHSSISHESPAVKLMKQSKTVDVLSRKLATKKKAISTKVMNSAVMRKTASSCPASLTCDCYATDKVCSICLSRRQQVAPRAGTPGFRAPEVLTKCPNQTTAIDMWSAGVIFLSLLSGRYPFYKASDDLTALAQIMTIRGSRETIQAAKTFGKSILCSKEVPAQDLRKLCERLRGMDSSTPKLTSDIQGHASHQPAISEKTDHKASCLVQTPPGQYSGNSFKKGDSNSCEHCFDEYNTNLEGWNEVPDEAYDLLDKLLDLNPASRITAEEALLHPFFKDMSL
T1 sequence (Q9UBU7 whole entry partner): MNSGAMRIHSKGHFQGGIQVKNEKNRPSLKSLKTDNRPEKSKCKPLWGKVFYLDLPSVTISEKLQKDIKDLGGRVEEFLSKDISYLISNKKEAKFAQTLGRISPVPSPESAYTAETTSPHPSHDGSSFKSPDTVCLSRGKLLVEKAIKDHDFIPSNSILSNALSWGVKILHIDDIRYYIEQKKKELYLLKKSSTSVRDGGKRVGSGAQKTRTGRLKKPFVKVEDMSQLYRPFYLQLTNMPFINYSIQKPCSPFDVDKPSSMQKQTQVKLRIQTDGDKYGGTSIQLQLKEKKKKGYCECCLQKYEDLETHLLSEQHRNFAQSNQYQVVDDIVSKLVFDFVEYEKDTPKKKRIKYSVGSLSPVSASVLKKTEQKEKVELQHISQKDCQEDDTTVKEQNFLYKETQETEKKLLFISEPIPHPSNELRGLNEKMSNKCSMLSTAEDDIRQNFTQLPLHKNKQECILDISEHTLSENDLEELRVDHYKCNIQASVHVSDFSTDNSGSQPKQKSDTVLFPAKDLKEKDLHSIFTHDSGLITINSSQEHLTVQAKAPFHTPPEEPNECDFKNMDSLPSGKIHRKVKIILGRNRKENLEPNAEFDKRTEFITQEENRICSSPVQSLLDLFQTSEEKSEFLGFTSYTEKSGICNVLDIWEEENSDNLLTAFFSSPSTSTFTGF

For the compound `CS(=O)(=O)N[C@@H]1CCCC[C@H]1Nc1cc(-c2c[nH]c3ncccc23)cc(Cl)n1` (relative stereo) [Example 110, N-[(trans)-2-{[6-chloro-4-(1H-pyrrolo[2,3-b]pyridin-3-yl)pyridin-2-yl]amino}cyclohexyl]methanesulfonamide], the Ki was < 10 nM. Still for that read-out and setting: the figure for `O=C(N[C@@H]1CCCC[C@H]1Nc1cc(-c2c[nH]c3ncccc23)cc(Cl)n1)C1CCN1` (relative stereo) [Example 120, N-[(trans)-2-{[6-chloro-4-(1H-pyrrolo[2,3-b]pyridin-3-yl)pyridin-2-yl]amino}cyclohexyl]azetidine-2-carboxamide] is < 10 nM. For `CN1CCC(C(=O)N[C@H]2CC[C@H](Nc3cc(-c4c[nH]c5ncccc45)cc(Cl)n3)CC2)C1` (relative stereo) [Example 125, N-(trans-4-{[6-chloro-4-(1H-pyrrolo[2,3-b]pyridin-3-yl)pyridin-2-yl]amino}cyclohexyl)-1-methylpyrrolidine-3-carboxamide], the Ki is < 10 nM. Still for that read-out and setting: the figure for `N[C@H]1CCCC[C@H]1Nc1cc(-c2c[nH]c3ncccc23)cc(Cl)n1` (relative stereo) [Example 131, (cis)-N-[6-chloro-4-(1H-pyrrolo[2,3-b]pyridin-3-yl)pyridin-2-yl]cyclohexane-1,2-diamine] is < 10 nM.

Turning to `CS(=O)(=O)N[C@@H]1CCCC[C@@H]1Nc1cc(-c2c[nH]c3ncccc23)cc(Cl)n1` (relative stereo) [Example 132, N-[(cis)-2-{[6-chloro-4-(1H-pyrrolo[2,3-b]pyridin-3-yl)pyridin-2-yl]amino}cyclohexyl]methanesulfonamide], the Ki was < 10 nM. With `CCN1CCC1C(=O)N[C@H]1CC[C@H](Nc2cc(-c3c[nH]c4ncccc34)cc(Cl)n2)CC1` (relative stereo) [Example 134, N-(trans-4-{[6-chloro-4-(1H-pyrrolo[2,3-b]pyridin-3-yl)pyridin-2-yl]amino}cyclohexyl)-1-ethylazetidine-2-carboxamide], the Ki is < 10 nM. The same measure, in the same setting: next, `O=C(N[C@H]1CC[C@H](Nc2cc(-c3c[nH]c4ncccc34)cc(Cl)n2)CC1)C1CCN1C1CCCC1` (relative stereo) [Example 136, N-(trans-4-{[6-chloro-4-(1H-pyrrolo[2,3-b]pyridin-3-yl)pyridin-2-yl]amino}cyclohexyl)-1-cyclopentylazetidine-2-carboxamide]: < 10 nM; `CN(C)[C@@H]1CCCC[C@@H]1Nc1cc(-c2c[nH]c3ncccc23)cc(Cl)n1` (relative stereo) [Example 140, (cis)-N′-[6-chloro-4-(1H-pyrrolo[2,3-b]pyridin-3-yl)pyridin-2-yl]-N,N-dimethylcyclohexane-1,2-diamine]: < 10 nM. On the same count and under the same terms, the figure for `O=S(=O)(N[C@H]1CC[C@H](Nc2cc(-c3c[nH]c4ncccc34)cc(Cl)n2)CC1)C1CCNC1` (relative stereo) [Example 151, N-(trans-4-{[6-chloro-4-(1H-pyrrolo[2,3-b]pyridin-3-yl)pyridin-2-yl]amino}cyclohexyl)pyrrolidine-3-sulfonamide] is < 10 nM; for `NC1CCC(N[C@H]2CC[C@H](Nc3cc(-c4c[nH]c5ncccc45)cc(Cl)n3)CC2)CC1` (relative stereo) [Example 158, trans-N-(4-aminocyclohexyl)-N′-[6-chloro-4-(1H-pyrrolo[2,3-b]pyridin-3-yl)pyridin-2-yl]cyclohexane-1,4-diamine] it is < 10 nM; for `CCN1CCC(C(=O)N[C@H]2CC[C@H](Nc3cc(-c4c[nH]c5ncc(OC)cc45)cc(Cl)n3)CC2)C1` (relative stereo) [Example 219, N-(trans-4-{[6-chloro-4-(5-methoxy-1H-pyrrolo[2,3-b]pyridin-3-yl)pyridin-2-yl]amino}cyclohexyl)-1-ethylpyrrolidine-3-carboxamide] it is < 10 nM.

`CCN1CCC(C(=O)N[C@H]2CC[C@H](Nc3cc(-c4c[nH]c5ncccc45)cc(Cl)n3)CC2)C1` (relative stereo) [Example 326, N-(trans-4-{[6-chloro-4-(1H-pyrrolo[2,3-b]pyridin-3-yl)pyridin-2-yl]amino}cyclohexyl)-1-ethylpyrrolidine-3-carboxamide]: the Ki is < 10 nM.

For `CN1CCC[C@H]1C(=O)N[C@H]1CC[C@H](Nc2cc(-c3c[nH]c4ncccc34)cc(Cl)n2)CC1` (relative stereo) [Example 336, N-(trans-4-{[6-chloro-4-(1H-pyrrolo[2,3-b]pyridin-3-yl)pyridin-2-yl]amino}cyclohexyl)-1-methylprolinamide], the Ki is < 10 nM. Still for that read-out and setting: next, `CN1CCCCC1C(=O)N[C@H]1CC[C@H](Nc2cc(-c3c[nH]c4ncccc34)cc(Cl)n2)CC1` (relative stereo) [Example 337, N-(trans-4-{[6-chloro-4-(1H-pyrrolo[2,3-b]pyridin-3-yl)pyridin-2-yl]amino}cyclohexyl)-1-methylpiperidine-2-carboxamide]: < 10 nM; `CN1C(=O)CC[C@H]1C(=O)N[C@H]1CC[C@H](Nc2cc(-c3c[nH]c4ncccc34)cc(Cl)n2)CC1` (relative stereo) [Example 342, N-(trans-4-{[6-chloro-4-(1H-pyrrolo[2,3-b]pyridin-3-yl)pyridin-2-yl]amino}cyclohexyl)-1-methyl-5-oxoprolinamide]: < 10 nM.

As to `O=C(CNC1CN2CCC1CC2)N[C@H]1CC[C@H](Nc2cc(-c3c[nH]c4ncccc34)cc(Cl)n2)CC1` (relative stereo) [Example 351, N~2~-1-azabicyclo[2.2.2]oct-3-yl-N-(trans-4-{[6-chloro-4-(1H-pyrrolo[2,3-b]pyridin-3-yl)pyridin-2-yl]amino}cyclohexyl)glycinamide], the inhibitory constant (Ki) was < 10 nM. As to `CC1CCC(NCC(=O)N[C@H]2CC[C@H](Nc3cc(-c4c[nH]c5ncccc45)cc(Cl)n3)CC2)CC1` (relative stereo) [Example 354, N-(trans-4-{[6-chloro-4-(1H-pyrrolo[2,3-b]pyridin-3-yl)pyridin-2-yl]amino}cyclohexyl)-N~2~-(4-methylcyclohexyl)glycinamide], the inhibition constant Ki is < 10 nM.

Consider `O=C(NC1CCC(N[C@H]2CC[C@H](Nc3cc(-c4c[nH]c5ncccc45)cc(Cl)n3)CC2)CC1)OCc1ccccc1` (relative stereo) [Example 363, benzyl {4-[(trans-4-{[6-chloro-4-(1H-pyrrolo[2,3-b]pyridin-3-yl)pyridin-2-yl]amino}cyclohexyl)amino]cyclohexyl}carbamate], for which the Ki was < 10 nM. The same measure, in the same setting: the figure for `CC(=O)NC1CCC(N(C(C)=O)[C@H]2CC[C@H](Nc3cc(-c4c[nH]c5ncccc45)cc(Cl)n3)CC2)CC1` (relative stereo) [Example 365, N-[4-(acetylamino)cyclohexyl]-N-(trans-4-{[6-chloro-4-(1H-pyrrolo[2,3-b]pyridin-3-yl)pyridin-2-yl]amino}cyclohexyl)acetamide] is < 10 nM; for `CC(c1ccccc1)N1CC(C(=O)N[C@H]2CC[C@H](Nc3cc(-c4c[nH]c5ncccc45)cc(Cl)n3)CC2)C1` (relative stereo) [Example 396, N-(trans-4-{[6-chloro-4-(1H-pyrrolo[2,3-b]pyridin-3-yl)pyridin-2-yl]amino}cyclohexyl)-1-(1-phenylethyl)azetidine-3-carboxamide] it is < 10 nM. Turning to `CCN1CCC(C(=O)N[C@H]2CC[C@H](Nc3nc(Cl)cc(-c4c[nH]c5ncccc45)n3)CC2)C1` (relative stereo) [Example 462, N-(trans-4-{[4-chloro-6-(1H-pyrrolo[2,3-b]pyridin-3-yl)pyrimidin-2-yl]amino}cyclohexyl)-1-ethylpyrrolidine-3-carboxamide], the inhibitory constant (Ki) is < 10 nM. Turning to `c1cnc2[nH]cc(-c3ccnc(NC4CCCCC4)c3)c2c1` [Comparative Example 1, N-cyclohexyl-4-(1H-pyrrolo[2,3-b]pyridin-3-yl)pyridin-2-amine, reference compound], the “Ki ratio comparisons (Ki Comparative Example/Ki Example)” value (from here on “Ki ratio comparisons”) is 10. Still for that read-out and setting: the figure for `Cc1cc(-c2c[nH]c3ncccc23)cc(NC2CCCCC2)n1` [Comparative Example 2, N-cyclohexyl-6-methyl-4-(1H-pyrrolo[2,3-b]pyridin-3-yl)pyridin-2-amine, reference compound] is 14. On to `Cc1cc(-c2c[nH]c3ncccc23)cc(NCc2ccccc2)n1` [Comparative Example 3, N-benzyl-6-methyl-4-(1H-pyrrolo[2,3-b]pyridin-3-yl)pyridin-2-amine, reference compound], for which the “Ki ratio comparisons” value stood at 75.

Regarding `Cc1cc(-c2c[nH]c3ncccc23)cc(N[C@H]2CC[C@H](O)CC2)n1` [Comparative Example 4, Trans-4-{[6-methyl-4-(1H-pyrrolo[2,3-b]pyridin-3-yl)pyridin-2-yl]amino}cyclohexanol, reference compound], the “Ki ratio comparisons” value was determined as 54. On the same count and under the same terms, next, `N#Cc1cc(-c2c[nH]c3ncccc23)cc(NC2CCCCC2)n1` [Comparative Example 5, 6-(cyclohexylamino)-4-(1H-pyrrolo[2,3-b]pyridin-3-yl)pyridine-2-carbonitrile, reference compound]: 9. Still for that read-out and setting: next, `N#Cc1cc(-c2c[nH]c3ncccc23)cc(NCc2ccccc2)n1` [Comparative Example 6, 6-(benzylamino)-4-(1H-pyrrolo[2,3-b]pyridin-3-yl)pyridine-2-carbonitrile, reference compound]: 5; `NC(=O)c1cc(-c2c[nH]c3ncccc23)cc(NCc2ccccc2)n1` [Comparative Example 7, 6-(benzylamino)-4-(1H-pyrrolo[2,3-b]pyridin-3-yl)pyridine-2-carboxamide, reference compound]: 45.
